Results as given in article PMC4480820, “Modafinil and its metabolites enhance the anticonvulsant action of classical antiepileptic drugs in the mouse maximal electroshock-induced seizure model” (Psychopharmacology, 2015).

Experiments:
[1] = system: skeletal muscular strength in mice; assay: Grip strength test; format: in vivo, Swiss mice; settings: mean ± S.E.M.
Description: The effects of combinations of modafinil (50 mg kg^−1), sulfone and acid metabolites (50 mg kg^−1), or GBR 12909 (25 mg kg^−1) with different classical AEDs at doses corresponding to their ED50 values from the MES test on skeletal muscular strength in mice were quantified by the grip strength test of Meyer et al. ([1979]). The grip strength apparatus (BioSeb, Chaville, France) comprised a wire grid (8 × 8 cm) connected to an isometric force transducer (dynamometer). The mice were lifted by the tails so that their forepaws could grasp the grid. The mice were then gently pulled backward by the tail until the grid was released. The maximal force exerted by the mouse before losing grip was recorded. The mean of three measurements for each animal was calculated, and subsequently, the mean maximal force of eight animals per group was determined. The muscular strength in mice is expressed in N (newtons) as the means ± S.E.M. of at least eight determinations.

[2] = system: MES-induced seizures in mice; parameters: method as in Chatterjie et al. [2004]; settings: 300 mg kg^−1 i.p., ref Chatterjie et al. [2004], cited from earlier work
[3] = system: motor coordination in mice; assay: Chimney test; format: in vivo, Swiss mice; settings: n = 8 mice/group
Description: The chimney test of Boissier et al. ([1960]) was used to quantify the adverse effect potential of classical AEDs administered in combination with modafinil, its metabolites, or GBR 12909. In this test, the animals had to climb backwards up a plastic tube (3-cm inner diameter, 30 cm long), and impairment of motor performance was indicated by the inability of the mice to climb backward up the transparent tube within 60 s.

[4] = system: threshold for electroconvulsions in mice; assay: Maximal electroshock seizure threshold (MEST) test; settings: for TID20 (dose that increases threshold by 20 %): i.p., 30 min before test, from linear regression of dose vs threshold increase
[5] = system: passive avoidance performance in mice; assay: Step-through passive avoidance task; format: in vivo, Swiss mice; settings: median (25th; 75th percentiles), observed up to 180 s
Description: The effects of combinations of modafinil (50 mg kg^−1), its metabolites (50 mg kg^−1), or GBR 12909 (25 mg kg^−1) with different classical AEDs were quantified by the step-through passive avoidance task of Venault et al. ([1986]). AEDs were administered at doses corresponding to their ED50 values from the MES test. Each animal received an AED either alone or in combination either with modafinil, sulfone, and acid metabolites or with GBR 12909 on the first day before training. The time before commencement of the training session (after drug administration) in the step-through passive avoidance task was identical to that for the MES test. Subsequently, the animals were placed in an illuminated box (10 × 13 × 15 cm) connected to a larger dark box (25 × 20 × 15 cm) equipped with an electric grid floor. Entrance of the animals to the dark box was punished by an adequate electric footshock (0.6 mA for 2 s). […] On the following day (24 h later), the pretrained animals were placed again into the illuminated box and observed for up to 180 s. Mice that avoided the dark compartment for 180 s were considered as having remembered the task. The time the mice took to enter the dark box was noted, and the median latencies (retention times) with 25th and 75th percentiles were calculated.

[6] = system: MES-induced seizures in mice; assay: Maximal electroshock seizure (MES) test, AEDs alone and in combination; format: in vivo, Swiss mice; settings: AED + vehicle (alone), i.p., 25 mA, ± S.E.M.
Description: The stimulus duration was 0.2 s.
These parameters of stimulation (maximal electroshock) typically result in all mice responding with tonic hind limb extension immediately after stimulation. The AEDs administered alone and their combination with modafinil, its metabolites, or GBR 12909 were tested for their ability to increase the number of animals not responding with tonus (i.e., protected from tonic hind limb extension) after stimulation. […] After constructing a dose-effect curve (i.e., dose in mg kg^−1 vs percentage of mice protected), the protective median effective dose (ED50) value of the AED tested was calculated according to a log-probit method by Litchfield and Wilcoxon ([1949]). […] Modafinil, its two metabolites, and GBR 12909 were tested for their ability to affect the anticonvulsive potency of AEDs.

[7] = Total brain antiepileptic drug concentrations (fluorescence polarization immunoassay); settings: AED + vehicle, mean ± S.E.M., n = 8
Description: The whole brains of mice were removed from the skulls, weighed, harvested, and homogenized using Abbott buffer (1:2 weight/volume; Abbott Laboratories, North Chicago, IL, USA) in an Ultra-Turrax T8 homogenizer. The homogenates were then centrifuged at 10,000 g for 10 min, and the supernatant samples of 100 μl were collected and then analyzed for AED content. Total brain concentrations of CBZ, PB, PHT, and VPA were measured by a fluorescence polarization immunoassay using an analyzer (Abbott TDx) and manufacturer-supplied reagent kits (Abbott Laboratories, North Chicago, IL, USA). Total brain AED concentrations are expressed in μg g^−1 of wet brain tissue as means ± standard error of the mean (S.E.M.) of at least eight separate brain preparations.

[8] = system: locomotor activation in mice; parameters: method as in Paterson et al. [2010]; settings: ref Paterson et al. [2010]; cited from earlier work
[9] = compound alone 50 mg kg^−1 i.p. + vehicle
[10] = control of GBR series (Table 5)
[11] = control of MOD, SULF and ACID series (Tables 2-4)
[12] = i.p.: CBZ 4.3, PB 13.0, PHT 5.4, VPA 245.3 mg kg^−1 (control of MOD)
[13] = i.p.: CBZ 5.7, PB 14.0, PHT 6.0, VPA 226.4 mg kg^−1 (control of SULF)
[14] = i.p.: CBZ 6.4, PB 14.4, PHT 6.3, VPA 241.6 mg kg^−1 (control of ACID)
[15] = i.p.: CBZ 11.2, PB 15.4, PHT 7.0, VPA 211.4 mg kg^−1 (control of GBR)
[16] = GBR alone 25 mg kg^−1 i.p. + vehicle

SMILES	TI (percentage of threshold increase over vehicle control) ([4]; 12.5 mg kg^−1 i.p.)	TI (percentage of threshold increase over vehicle control) ([4]; 25 mg kg^−1 i.p.)	TI (percentage of threshold increase over vehicle control) ([4]; 50 mg kg^−1 i.p.)	TID20 (dose that increases threshold by 20 %) [4]	ED50 of the AED (protecting 50 % of animals against MES-induced hind limb extension) [6, 10]	ED50 of the AED (protecting 50 % of animals against MES-induced hind limb extension) [6, 11]	Brain concentration of the AED [7, 12]	Brain concentration of the AED [7, 13]	Brain concentration of the AED [7, 14]	Brain concentration of the AED [7, 15]	other results
O=C(O)CSC(c1ccccc1)c1ccccc1 [ACID, diphenylmethylthioacetic acid]	12.83%	22.32%	34.80%	23.47 mg/kg	–	–	–	–	–	–	Grip strength [1, 9]: 0.961 ± 0.050 N; Toxicity at the dose tested in the MES test [2]: toxic; Motor coordination impairment (number of animals showing impairment in the chimney test) [3, 9]: 0/8; TI (percentage of threshold increase over vehicle control) ([4]; 75 mg kg^−1 i.p.): 57.82%; Retention time [5, 9]: 180 (133.5; 180) s
NC(=O)N1c2ccccc2C=Cc2ccccc21 [CBZ, carbamazepine]	–	–	–	–	15.53 ± 1.04 mg/kg	11.23 ± 1.20 mg/kg	2.41 ± 0.48 μg g^−1 of wet brain tissue	3.76 ± 0.35 μg g^−1 of wet brain tissue	4.46 ± 0.31 μg g^−1 of wet brain tissue	6.66 ± 0.42 μg g^−1 of wet brain tissue	–
Fc1ccc(C(OCCN2CCN(CCCc3ccccc3)CC2)c2ccc(F)cc2)cc1 [GBR]	19.18%	25.67%	44.53%	16.37 mg/kg	–	–	–	–	–	–	Grip strength [1, 16]: 0.937 ± 0.042 N; Dose eliciting equivalent locomotor activation [8]: 15 mg/kg; Motor coordination impairment (number of animals showing impairment in the chimney test) [3, 16]: 1/8; TI (percentage of threshold increase over vehicle control) ([4]; 6.25 mg kg^−1 i.p.): 11.25%; Retention time [5, 16]: 180 (133.5; 180) s
CCC1(c2ccccc2)C(=O)NC(=O)NC1=O [PB, phenobarbital]	–	–	–	–	26.90 ± 2.15 mg/kg	20.80 ± 3.12 mg/kg	23.56 ± 1.10 μg g^−1 of wet brain tissue	23.71 ± 0.86 μg g^−1 of wet brain tissue	25.46 ± 0.84 μg g^−1 of wet brain tissue	24.18 ± 0.70 μg g^−1 of wet brain tissue	–
O=C1NC(=O)C(c2ccccc2)(c2ccccc2)N1 [PHT, phenytoin]	–	–	–	–	12.10 ± 1.20 mg/kg	11.00 ± 0.93 mg/kg	1.39 ± 0.20 μg g^−1 of wet brain tissue	1.65 ± 0.19 μg g^−1 of wet brain tissue	1.70 ± 0.15 μg g^−1 of wet brain tissue	3.22 ± 0.30 μg g^−1 of wet brain tissue	–
NC(=O)CS(=O)(=O)C(c1ccccc1)c1ccccc1 [SULF, diphenylmethylsufonylacetamide]	14.24%	21.62%	32.34%	23.57 mg/kg	–	–	–	–	–	–	Grip strength [1, 9]: 0.957 ± 0.058 N; Protection against MES-induced seizures ([2]; administered alone): 50%; Motor coordination impairment (number of animals showing impairment in the chimney test) [3, 9]: 0/8; TI (percentage of threshold increase over vehicle control) ([4]; 75 mg kg^−1 i.p.): 58.88%; Retention time [5, 9]: 180 (180; 180) s
CCCC(CCC)C(=O)O [VPA, valproate]	–	–	–	–	286.7 ± 20.11 mg/kg	328.6 ± 13.17 mg/kg	299.73 ± 15.09 μg g^−1 of wet brain tissue	276.30 ± 11.55 μg g^−1 of wet brain tissue	346.98 ± 16.10 μg g^−1 of wet brain tissue	173.66 ± 10.36 μg g^−1 of wet brain tissue	–
